US20240382556A1, “METHODS AND COMPOSITIONS FOR THE TREATMENT OF ALCOHOL DEPENDENCE” (Duke University, priority 2023, published 2024)
Residues, ends and D or L forms follow the SMILES beside them.

What was measured:
animal models = settings: unlike ketamine, Moskal et al. 2017; cited from earlier work
Adult male C57/B16J mice = experiment: Drinking in the Dark (DID) mouse model of binge drinking behavior; assay type: in vivo
Procedure: To measure binge drinking behavior, experiments were conducted that used the Drinking in the Dark (DID) model as previously published (see, Thiele T E, Crabbe J C, Boehm S L, 2nd (2014): “Drinking in the Dark” (DID): a simple mouse model of binge-like alcohol intake. Curr Protoc Neurosci. 68: 9 49 41-49 49 12). Adult male C57/B16J mice on reverse light-dark cycle had water replaced with alcohol three hours into the dark cycle. On days 1-3 of each week (Mon-Wed), mice received 20% alcohol for 2 hrs and on day 4 (Thur) received for 4 hours.
Mice were treated with Rapastinel at dose of 30 mg/kg or saline via intraperitoneal injection (i.p.) 30 minutes prior to alcohol exposure on days 1-4 of cycle either during first cycle of DID or after first undergoing DID for 5 weeks prior to treatment on week 6 (see, FIG. 1).

[1] = test system: preclinical rodent models; settings: previously shown; cited from earlier work

C[C@@H](O)[C@H](N)C(=O)N1CCC[C@H]1C(=O)N1CCC[C@H]1C(=O)N[C@H](C(N)=O)[C@@H](C)O [Rapastinel, L-threonyl-L-prolyl-L-prolyl-L-threoninamide] (H-TPPT-NH2)
negative side effects during treatment (animal models): has not been shown to produce any negative side effects | alcohol consumption (daily and total) compared to saline control (Adult male C57/B16J mice; alcohol naïve mice, 1 cycle of DID, daily i.p. injection of 30 mg/kg prior to presentation of alcohol): no effect | Total average weekly alcohol consumption, week 6 with treatment in comparison to weeks 1-5 (Adult male C57/B16J mice; mice after 5 weeks of DID, 30 mg/kg i.p. 30 minutes prior to alcohol on days 1-4 of week 6, with and without removal of outliers (>90%)): reduced alcohol consumption | cravings for opiates [1]: effective in reducing cravings for opiates
